Results: US9662318B2, “Bitopic muscarinic agonists and antagonists and methods of synthesis and use thereof” (BARRY UNIVERSITY, INC., priority 2012, dated 2017)
Where a name gives a salt, the structure may show the parent alone.

The compounds below were run on M1-M5 muscarinic receptors (assay: Accumulation of inositol phosphates, statements over all subtypes). Conditions: 0.1 mM; at all receptor subtypes.
Type: cell-based, human
Protocol: Antagonism of tested compounds was determined at single high concentration of 0.1 mM.

| Compound | basal functional response (in the absence of carbachol) |
| --- | --- |
| CCCCc1ccc(C(=O)OCCN2CC=CCC2)cc1 [Compound 9b, 2-(1,2,5,6-tetrahydropyridine-N-ethyl)-4-butylbenzoate hydrochloride] | lowered basal functional response |
| CCCCOc1ccc(C(=O)OCC[N+]2(C)CC=CCC2)cc1 (centres unmarked) [Compound 10a, 2-(1,2,5,6-tetrahydropyridine-N-ethyl)-4-butoxybenzoate N-methyl iodide] | lowered basal functional response |

Same assay, conditions: from shifts in carbachol EC50, Table 6

| functional selectivity of antagonism | Compound |
| --- | --- |
| M1/M4 functionally selective antagonists | CCCCc1ccc(C(=O)OCCN2CC=CCC2)cc1 [Compound 9b, 2-(1,2,5,6-tetrahydropyridine-N-ethyl)-4-butylbenzoate hydrochloride] |
| M1/M5 functionally selective | CCCCc1ccc(C(=O)OCC[N+]2(C)CCCCC2)cc1 [Compound 13b, 2-(N-Piperidineethyl) p-butylbenzoyl ester N-methyl iodide] |
| M1/M3 functionally selective antagonist | CCCCc1ccc(C(=O)OCCN2CCCCC2)cc1 [Compound 14b] |

Each compound was assayed against T1, M3 muscarinic receptor (Homo sapiens, UniProt P20309) (assay: Accumulation of inositol phosphates in CHO cells). Conditions: ligand 0.1 mM, no carbachol.
T1 construct: host or cells: Chinese hamster ovary cells
Type: cell-based

T1 sequence (P20309 whole entry): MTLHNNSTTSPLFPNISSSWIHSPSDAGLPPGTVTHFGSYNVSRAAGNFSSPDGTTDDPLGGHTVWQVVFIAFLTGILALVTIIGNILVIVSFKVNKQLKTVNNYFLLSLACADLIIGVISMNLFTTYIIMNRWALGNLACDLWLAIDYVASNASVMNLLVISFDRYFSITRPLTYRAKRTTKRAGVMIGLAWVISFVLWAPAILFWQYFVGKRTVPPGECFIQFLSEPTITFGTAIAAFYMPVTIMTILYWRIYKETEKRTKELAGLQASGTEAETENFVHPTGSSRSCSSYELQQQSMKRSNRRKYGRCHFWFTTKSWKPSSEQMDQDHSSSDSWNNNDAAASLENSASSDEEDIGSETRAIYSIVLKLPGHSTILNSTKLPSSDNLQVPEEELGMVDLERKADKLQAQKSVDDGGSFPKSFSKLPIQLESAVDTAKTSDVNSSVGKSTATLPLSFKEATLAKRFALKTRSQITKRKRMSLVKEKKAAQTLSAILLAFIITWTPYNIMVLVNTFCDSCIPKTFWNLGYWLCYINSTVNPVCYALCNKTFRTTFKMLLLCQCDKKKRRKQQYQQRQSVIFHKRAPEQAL

| Effect of ligands on basal activity (accumulation of inositol phosphates as percent of accumulation in the absence of the ligand) [%] | Compound |
| --- | --- |
| 81 ± 5 | CCCCc1ccc(C(=O)OCCN2CC=CCC2)cc1 [Compound 9b, 2-(1,2,5,6-tetrahydropyridine-N-ethyl)-4-butylbenzoate hydrochloride] |
| 104 ± 4 | CCCCc1ccc(C(=O)OCC[N+]2(C)CCCCC2)cc1 [Compound 13b, 2-(N-Piperidineethyl) p-butylbenzoyl ester N-methyl iodide] |
| 103 ± 3 | CCCCc1ccc(C(=O)OCCN2CCCCC2)cc1 [Compound 14b] |

| Compound | Effect of ligands on basal activity (accumulation of inositol phosphates as percent of accumulation in the absence of the ligand) [%] |
| --- | --- |
| CCCCOc1ccc(C(=O)OCC[N+]2(C)CC=CCC2)cc1 (centres unmarked) [Compound 10a, 2-(1,2,5,6-tetrahydropyridine-N-ethyl)-4-butoxybenzoate N-methyl iodide] | 74 ± 3 |

The compounds below were run against T2, M4 muscarinic receptor (Homo sapiens, UniProt P08173) (assay: Competition with [3H]NMS (equilibrium binding, CHO membranes)). Conditions: read-out: Binding Equilibrium Constants (expressed as pKI) (converted).
T2 construct: host or cells: Chinese hamster ovary cells
T2 sequence (P08173 1-479): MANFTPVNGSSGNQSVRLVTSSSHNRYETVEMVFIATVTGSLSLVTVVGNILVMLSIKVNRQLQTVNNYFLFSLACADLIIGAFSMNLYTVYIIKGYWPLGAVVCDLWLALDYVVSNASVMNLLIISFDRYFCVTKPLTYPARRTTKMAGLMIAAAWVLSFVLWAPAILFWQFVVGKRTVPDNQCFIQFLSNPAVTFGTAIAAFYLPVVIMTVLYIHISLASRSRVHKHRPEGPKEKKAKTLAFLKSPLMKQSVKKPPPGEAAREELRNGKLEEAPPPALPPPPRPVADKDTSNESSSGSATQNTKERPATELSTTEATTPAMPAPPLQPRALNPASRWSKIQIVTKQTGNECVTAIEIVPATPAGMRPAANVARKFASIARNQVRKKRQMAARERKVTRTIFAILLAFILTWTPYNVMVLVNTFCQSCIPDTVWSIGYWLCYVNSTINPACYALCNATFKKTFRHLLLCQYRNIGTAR
Protocol: (§1) All radioligand binding experiments were optimized and carried out as described earlier. Briefly, membranes were incubated in 96-well plates at 30° C. in the incubation medium described. […] Dissociation was initiated by addition of atropine to final concentration of 5 Tested ligands in final concentration of 100 μM were added concurrently with atropine. Incubations were terminated by filtration through Whatman GF/C glass fiber filters (Whatman) using a Brandel cell harvester (Brandel, Gaithersburg, Md., USA). Filters were dried in vacuum for 1 h while heated at 80° C. and then solid scintillator Meltilex A was melted on filters (105° C., 90 s) using a hot plate. The filters were cooled and counted in Wallac Microbeta scintillation counter.
(§2) Inhibition constant KI was calculated as: […]

| Ki [µM] | Compound |
| --- | --- |
| 25.1 | CCCCc1ccc(C(=O)OCCN2CC=CCC2)cc1 [Compound 9b, 2-(1,2,5,6-tetrahydropyridine-N-ethyl)-4-butylbenzoate hydrochloride] |
| 3.98 | CCCCc1ccc(C(=O)OCC[N+]2(C)CCCCC2)cc1 [Compound 13b, 2-(N-Piperidineethyl) p-butylbenzoyl ester N-methyl iodide] |
| 9.77 | CCCCc1ccc(C(=O)OCCN2CCCCC2)cc1 [Compound 14b] |

| Compound | Ki [µM] |
| --- | --- |
| CCCCOc1ccc(C(=O)OCC[N+]2(C)CC=CCC2)cc1 (centres unmarked) [Compound 10a, 2-(1,2,5,6-tetrahydropyridine-N-ethyl)-4-butoxybenzoate N-methyl iodide] | 7.94 |

Each compound was assayed against T3, M1 muscarinic receptor (Homo sapiens, UniProt P11229) in the same assay as above. Conditions: read-out: Binding Equilibrium Constants (expressed as pKI) (converted).
T3 sequence (P11229 1-460): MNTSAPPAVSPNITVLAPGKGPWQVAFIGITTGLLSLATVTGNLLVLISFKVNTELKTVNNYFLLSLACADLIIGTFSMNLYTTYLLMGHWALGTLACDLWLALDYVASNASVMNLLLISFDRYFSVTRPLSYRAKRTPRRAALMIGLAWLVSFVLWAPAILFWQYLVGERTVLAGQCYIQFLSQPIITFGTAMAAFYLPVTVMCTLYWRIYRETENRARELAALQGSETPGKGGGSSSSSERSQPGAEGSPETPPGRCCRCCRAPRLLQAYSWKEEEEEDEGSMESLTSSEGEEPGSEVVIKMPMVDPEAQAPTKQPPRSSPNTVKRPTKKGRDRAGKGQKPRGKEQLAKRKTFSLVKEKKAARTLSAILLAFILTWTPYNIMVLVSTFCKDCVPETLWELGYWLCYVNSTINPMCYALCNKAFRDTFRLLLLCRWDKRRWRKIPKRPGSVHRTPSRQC
Protocol: as §1, §2

| Ki [µM] | Compound |
| --- | --- |
| 7.94 | CCCCc1ccc(C(=O)OCCN2CC=CCC2)cc1 [Compound 9b, 2-(1,2,5,6-tetrahydropyridine-N-ethyl)-4-butylbenzoate hydrochloride] |
| 3.16 | CCCCc1ccc(C(=O)OCC[N+]2(C)CCCCC2)cc1 [Compound 13b, 2-(N-Piperidineethyl) p-butylbenzoyl ester N-methyl iodide] |
| 3.98 | CCCCc1ccc(C(=O)OCCN2CCCCC2)cc1 [Compound 14b] |

| Compound | Ki [µM] |
| --- | --- |
| CCCCOc1ccc(C(=O)OCC[N+]2(C)CC=CCC2)cc1 (centres unmarked) [Compound 10a, 2-(1,2,5,6-tetrahydropyridine-N-ethyl)-4-butoxybenzoate N-methyl iodide] | 2.51 |

Same assay, conditions: versus other subtypes; from pKI, Table 4

| higher affinity for M1 receptor | Compound |
| --- | --- |
| two to three-fold | CCCCc1ccc(C(=O)OCCN2CC=CCC2)cc1 [Compound 9b, 2-(1,2,5,6-tetrahydropyridine-N-ethyl)-4-butylbenzoate hydrochloride] |

The compounds below were run against T4, M5 muscarinic receptor (Homo sapiens, UniProt P08912) in the same assay as above. Conditions: read-out: Binding Equilibrium Constants (expressed as pKI) (converted).
T4 construct: host or cells: CHO (Chinese hamster ovary) cells, stably transfected
T4 sequence (P08912 1-532): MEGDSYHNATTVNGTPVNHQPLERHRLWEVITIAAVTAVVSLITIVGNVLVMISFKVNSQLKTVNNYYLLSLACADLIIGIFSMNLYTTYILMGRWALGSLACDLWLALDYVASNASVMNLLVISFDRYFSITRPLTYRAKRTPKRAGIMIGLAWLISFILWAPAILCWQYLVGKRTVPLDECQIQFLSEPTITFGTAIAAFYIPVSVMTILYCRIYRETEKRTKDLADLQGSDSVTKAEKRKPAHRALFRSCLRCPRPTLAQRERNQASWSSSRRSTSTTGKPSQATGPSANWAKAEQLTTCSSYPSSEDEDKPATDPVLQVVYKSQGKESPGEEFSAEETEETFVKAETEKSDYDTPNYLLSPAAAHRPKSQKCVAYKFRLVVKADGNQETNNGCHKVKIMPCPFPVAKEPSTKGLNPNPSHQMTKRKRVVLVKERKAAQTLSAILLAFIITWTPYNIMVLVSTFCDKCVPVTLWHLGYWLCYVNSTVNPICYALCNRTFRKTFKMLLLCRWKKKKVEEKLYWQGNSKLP
Protocol: as §1, §2

| Ki [µM] | Compound |
| --- | --- |
| 25.1 | CCCCc1ccc(C(=O)OCCN2CC=CCC2)cc1 [Compound 9b, 2-(1,2,5,6-tetrahydropyridine-N-ethyl)-4-butylbenzoate hydrochloride] |
| 2.45 | CCCCc1ccc(C(=O)OCC[N+]2(C)CCCCC2)cc1 [Compound 13b, 2-(N-Piperidineethyl) p-butylbenzoyl ester N-methyl iodide] |
| 5.01 | CCCCc1ccc(C(=O)OCCN2CCCCC2)cc1 [Compound 14b] |

| Compound | Ki [µM] |
| --- | --- |
| CCCCOc1ccc(C(=O)OCC[N+]2(C)CC=CCC2)cc1 (centres unmarked) [Compound 10a, 2-(1,2,5,6-tetrahydropyridine-N-ethyl)-4-butoxybenzoate N-methyl iodide] | 3.16 |

Each compound was assayed against T1, M3 muscarinic receptor in the same assay as above. Conditions: read-out: Binding Equilibrium Constants (expressed as pKI) (converted).
Protocol: as §1, §2

| Ki [µM] | Compound |
| --- | --- |
| 15.8 | CCCCc1ccc(C(=O)OCCN2CC=CCC2)cc1 [Compound 9b, 2-(1,2,5,6-tetrahydropyridine-N-ethyl)-4-butylbenzoate hydrochloride] |
| 2.04 | CCCCc1ccc(C(=O)OCC[N+]2(C)CCCCC2)cc1 [Compound 13b, 2-(N-Piperidineethyl) p-butylbenzoyl ester N-methyl iodide] |
| 6.31 | CCCCc1ccc(C(=O)OCCN2CCCCC2)cc1 [Compound 14b] |

| Compound | Ki [µM] |
| --- | --- |
| CCCCOc1ccc(C(=O)OCC[N+]2(C)CC=CCC2)cc1 (centres unmarked) [Compound 10a, 2-(1,2,5,6-tetrahydropyridine-N-ethyl)-4-butoxybenzoate N-methyl iodide] | 6.31 |

The compounds below were run against T3, M1 muscarinic receptor (assay: Accumulation of inositol phosphates in CHO cells). Conditions: ligand 0.1 mM, no carbachol.
Type: cell-based

| Effect of ligands on basal activity (accumulation of inositol phosphates as percent of accumulation in the absence of the ligand) [%] | Compound |
| --- | --- |
| 85 ± 4 | CCCCc1ccc(C(=O)OCCN2CC=CCC2)cc1 [Compound 9b, 2-(1,2,5,6-tetrahydropyridine-N-ethyl)-4-butylbenzoate hydrochloride] |
| 104 ± 4 | CCCCc1ccc(C(=O)OCC[N+]2(C)CCCCC2)cc1 [Compound 13b, 2-(N-Piperidineethyl) p-butylbenzoyl ester N-methyl iodide] |
| 103 ± 3 | CCCCc1ccc(C(=O)OCCN2CCCCC2)cc1 [Compound 14b] |

| Compound | Effect of ligands on basal activity (accumulation of inositol phosphates as percent of accumulation in the absence of the ligand) [%] |
| --- | --- |
| CCCCOc1ccc(C(=O)OCC[N+]2(C)CC=CCC2)cc1 (centres unmarked) [Compound 10a, 2-(1,2,5,6-tetrahydropyridine-N-ethyl)-4-butoxybenzoate N-methyl iodide] | 83 ± 3 |

The compounds below were run against T2, M4 muscarinic receptor (assay: Accumulation of inositol phosphates in CHO cells). Conditions: M4; ligand 0.1 mM; no carbachol.
Type: cell-based

| Effect of ligands on basal activity (accumulation of inositol phosphates as percent of accumulation in the absence of the ligand) [%] | Compound |
| --- | --- |
| 73 ± 6 | CCCCc1ccc(C(=O)OCCN2CC=CCC2)cc1 [Compound 9b, 2-(1,2,5,6-tetrahydropyridine-N-ethyl)-4-butylbenzoate hydrochloride] |
| 107 ± 4 | CCCCc1ccc(C(=O)OCC[N+]2(C)CCCCC2)cc1 [Compound 13b, 2-(N-Piperidineethyl) p-butylbenzoyl ester N-methyl iodide] |
| 106 ± 1 | CCCCc1ccc(C(=O)OCCN2CCCCC2)cc1 [Compound 14b] |

| Compound | Effect of ligands on basal activity (accumulation of inositol phosphates as percent of accumulation in the absence of the ligand) [%] |
| --- | --- |
| CCCCOc1ccc(C(=O)OCC[N+]2(C)CC=CCC2)cc1 (centres unmarked) [Compound 10a, 2-(1,2,5,6-tetrahydropyridine-N-ethyl)-4-butoxybenzoate N-methyl iodide] | 74 ± 7 |

What follows are compounds tested against T4, M5 muscarinic receptor (assay: Accumulation of inositol phosphates in CHO cells). Conditions: M5; ligand 0.1 mM; no carbachol.
Type: cell-based

| Effect of ligands on basal activity (accumulation of inositol phosphates as percent of accumulation in the absence of the ligand) [%] | Compound |
| --- | --- |
| 88 ± 3 | CCCCc1ccc(C(=O)OCCN2CC=CCC2)cc1 [Compound 9b, 2-(1,2,5,6-tetrahydropyridine-N-ethyl)-4-butylbenzoate hydrochloride] |
| 104 ± 4 | CCCCc1ccc(C(=O)OCC[N+]2(C)CCCCC2)cc1 [Compound 13b, 2-(N-Piperidineethyl) p-butylbenzoyl ester N-methyl iodide] |
| 103 ± 3 | CCCCc1ccc(C(=O)OCCN2CCCCC2)cc1 [Compound 14b] |

| Compound | Effect of ligands on basal activity (accumulation of inositol phosphates as percent of accumulation in the absence of the ligand) [%] |
| --- | --- |
| CCCCOc1ccc(C(=O)OCC[N+]2(C)CC=CCC2)cc1 (centres unmarked) [Compound 10a, 2-(1,2,5,6-tetrahydropyridine-N-ethyl)-4-butoxybenzoate N-methyl iodide] | 89 ± 3 |
